Measured values taken from publication PMC2248166, “Quantitative peptide binding motifs for 19 human and mouse MHC class I molecules derived using positional scanning combinatorial peptide libraries” (Immunome Research, 2008).

What was measured:
Format in all cases: binding
[1] = target: H-2 D^b (Mus musculus, UniProt P01899)
[2] = target: HLA A*3201 (Homo sapiens, UniProt P04439, A270S/D101S/D185E/E176V/E277Q/F133L/G103R/G107R/G231S/H175R/I121M/I218V/I322F/K168Q/L105A/L300P/L318F/M331R/P208A/P217A/Q94H/R106L/R138Q/S129P/T104I/T323A/T345S/V100E/V321M/V358M); assay: biochemical
[3] = target: HLA B*3501 (Homo sapiens, UniProt P01889, A329T/A93T/A95T/C349S/D201E/D98Y/E176V/E187L/E204Q/E69T/I218V/K202T/L119I/Q94N/R155S/R180L/S121R/S35A/S48A/T118I/V127L/V306I/V36M/Y140S/Y91F)
[4] = target: HLA B*5301 (Homo sapiens, UniProt P01889, A329T/A93T/A95T/C349S/D201E/D98Y/E176V/E187L/E204Q/E69T/G107R/I218V/K202T/L105A/L119I/N104I/Q94N/R106L/R155S/R180L/S101N/S121R/S35A/S48A/T118I/V127L/V306I/V36M/Y140S/Y91F)
[5] = target: HLA B*1501 (Homo sapiens, UniProt P01889, A329T/A93T/A95T/C349S/D201E/D98Y/E187L/E204Q/E69M/E70A/K202T/N87E/Q94N/R155S/R180W/S121R/S35A/S48A/V306I/V36M/Y140S/Y91S); assay: biochemical
[6] = target: HLA B*0801 (Homo sapiens, UniProt P01889, A93T/A95T/D138N/E176V/E187T/K202T/Q94N/R180D/S35A/V36M/Y33D/Y91F); assay: biochemical
[7] = target: H-2 K^d (Mus musculus, UniProt P01902)
[8] = target: HLA A*3001 (Homo sapiens, UniProt P04439, D140H/D185E/E176W/F33S/G80R/H175R/K168Q/R138E/R41S); assay: biochemical
[9] = target: H-2 K^k (Mus musculus, UniProt P04223)
[10] = target: HLA B*5101 (Homo sapiens, UniProt P01889, A329T/A93T/A95T/C349S/D138N/D201E/D98Y/E187L/E204Q/E69T/G107R/I218V/K202T/L105A/L119W/N104I/Q94N/R106L/R155S/R180L/S101N/S121T/S35A/S48A/V306I/V36M/Y195H/Y91F)
[11] = target: HLA A*6802 (Homo sapiens, UniProt P04439, A269V/D140Y/D185E/E176V/E277Q/E87N/F33Y/G231S/I121R/I166T/I218V/L180W/L300P/L318F/N151K/P208A/P217A/Q86R/R138H/R169H/S129P/T345S/V36M)
[12] = target: HLA B*5801 (Homo sapiens, UniProt P01889, A329T/C349S/D201E/D98Y/E176V/E187L/E204Q/E69T/G107R/I218V/I90N/K202T/L105A/L119I/N104I/N87E/Q89R/Q94S/R106L/R155S/R180L/R86G/S101N/S121R/S35A/S48A/T118I/V127L/V306I/V36M/Y140S/Y91M)
[13] = target: HLA B*5802 (Homo sapiens, UniProt P01889, A329T/C349S/D201E/D98Y/E176V/E187L/E204Q/E69T/G107R/I218V/I90N/K202T/L105A/N104I/N87E/Q89R/Q94S/R106L/R155S/R180L/R86G/S101N/S121W/S35A/S48A/V127L/V306I/V36M/Y140S/Y91M)
[14] = target: HLA B*5401 (Homo sapiens, UniProt P01889, A329T/C349S/D138N/D201E/E176V/E187T/E204Q/E69G/I76V/K202T/L119W/R155S/R180L/S121T/S35A/S48A/V127L/V306I/V36M/Y140L)
[15] = target: H-2 D^d (Mus musculus, UniProt P01900)
[16] = target: HLA B*1503 (Homo sapiens, UniProt P01889, A329T/A93T/A95T/C349S/D201E/D98Y/E187L/E204Q/K202T/N87E/Q94N/R155S/R180L/S121R/S35A/V306I/V36M/Y140S/Y91S); assay: biochemical

H-2 D^d, sequence (P01900 whole entry, looked up): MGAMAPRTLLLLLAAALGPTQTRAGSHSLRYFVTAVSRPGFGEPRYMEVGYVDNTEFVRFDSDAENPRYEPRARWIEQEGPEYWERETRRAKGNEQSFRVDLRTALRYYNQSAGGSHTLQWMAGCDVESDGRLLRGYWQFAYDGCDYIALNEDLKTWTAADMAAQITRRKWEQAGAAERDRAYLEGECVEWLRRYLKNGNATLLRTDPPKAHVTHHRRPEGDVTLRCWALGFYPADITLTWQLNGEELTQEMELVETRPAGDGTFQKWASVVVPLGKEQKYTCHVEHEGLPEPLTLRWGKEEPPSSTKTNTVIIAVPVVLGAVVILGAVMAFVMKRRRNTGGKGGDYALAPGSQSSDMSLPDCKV
H-2 K^k, sequence (P01887 21-119): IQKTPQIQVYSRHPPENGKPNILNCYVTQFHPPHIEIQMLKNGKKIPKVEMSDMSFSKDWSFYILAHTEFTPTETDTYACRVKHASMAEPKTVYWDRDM
H-2 K^k, sequence (P04223 22-369): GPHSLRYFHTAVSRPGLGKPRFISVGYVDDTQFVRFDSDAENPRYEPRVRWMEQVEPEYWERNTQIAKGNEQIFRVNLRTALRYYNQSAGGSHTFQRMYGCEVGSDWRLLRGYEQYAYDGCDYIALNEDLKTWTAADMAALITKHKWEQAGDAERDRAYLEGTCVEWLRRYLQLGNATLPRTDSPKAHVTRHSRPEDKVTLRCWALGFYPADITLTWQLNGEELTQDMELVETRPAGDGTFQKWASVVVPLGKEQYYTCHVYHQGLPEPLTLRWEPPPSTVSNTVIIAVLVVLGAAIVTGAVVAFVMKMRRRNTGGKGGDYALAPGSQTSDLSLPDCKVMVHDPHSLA
H-2 D^b, sequence (P01887 21-119): as the sequence (P01887 21-119) above
H-2 D^b, sequence (P01899 25-362): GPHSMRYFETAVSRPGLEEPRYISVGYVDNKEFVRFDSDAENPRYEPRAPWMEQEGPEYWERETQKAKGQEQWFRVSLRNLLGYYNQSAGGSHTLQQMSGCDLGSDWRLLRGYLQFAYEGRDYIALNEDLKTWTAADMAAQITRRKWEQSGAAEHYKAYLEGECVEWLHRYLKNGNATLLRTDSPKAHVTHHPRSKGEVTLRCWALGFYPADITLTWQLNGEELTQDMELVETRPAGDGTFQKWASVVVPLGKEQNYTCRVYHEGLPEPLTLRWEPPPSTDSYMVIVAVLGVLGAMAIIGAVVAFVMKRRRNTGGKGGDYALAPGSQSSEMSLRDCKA
H-2 K^d, sequence (P01887 21-119): as the sequence (P01887 21-119) above
H-2 K^d, sequence (P01902 22-368): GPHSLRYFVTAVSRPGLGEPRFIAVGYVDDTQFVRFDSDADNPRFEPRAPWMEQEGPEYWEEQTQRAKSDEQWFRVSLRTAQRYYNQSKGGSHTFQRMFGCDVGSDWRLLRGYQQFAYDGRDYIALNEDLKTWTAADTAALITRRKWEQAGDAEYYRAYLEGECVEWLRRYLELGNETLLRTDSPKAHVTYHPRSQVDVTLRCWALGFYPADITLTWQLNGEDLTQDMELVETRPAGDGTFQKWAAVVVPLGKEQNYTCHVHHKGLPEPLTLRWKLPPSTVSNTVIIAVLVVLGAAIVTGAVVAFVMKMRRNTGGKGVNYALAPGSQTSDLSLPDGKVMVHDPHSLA

Sequence	Normalized average relative binding affinity(ARB) [1]	Normalized average relative binding affinity(ARB) [2]	Normalized average relative binding affinity(ARB) [3]	Normalized average relative binding affinity(ARB) [4]	Normalized average relative binding affinity(ARB) [5]	Normalized average relative binding affinity(ARB) [6]	Normalized average relative binding affinity(ARB) [7]	Normalized average relative binding affinity(ARB) [8]	Normalized average relative binding affinity(ARB) [9]	Normalized average relative binding affinity(ARB) [10]	Normalized average relative binding affinity(ARB) [11]	Normalized average relative binding affinity(ARB) [12]	Normalized average relative binding affinity(ARB) [13]	Normalized average relative binding affinity(ARB) [14]	Normalized average relative binding affinity(ARB) [15]	Normalized average relative binding affinity(ARB) [16]
XXXXXXXHX [3064.0147]	0.073	0.49	0.15	0.74	1.0	0.15	0.096	0.44	0.0052	0.33	0.046	0.18	0.26	0.043	0.11	0.84
XXXXXXXIX [3064.0148]	0.14	0.60	0.55	1.0	0.18	0.39	0.30	0.21	0.56	0.21	0.051	0.39	0.41	0.11	0.25	0.33
XXXXXXXKX [3064.0149]	0.076	0.24	0.36	0.78	0.24	0.14	0.23	0.12	0.13	0.20	0.12	0.14	0.15	0.099	0.24	0.085
XXXXXXXLX [3064.0150]	0.46	0.29	0.31	0.42	0.15	0.11	0.43	0.23	0.54	0.86	0.16	0.43	0.57	0.053	0.80	0.13
XXXXXXXMX [3064.0151]	0.17	0.52	0.28	0.33	0.061	0.24	0.43	0.14	0.49	0.32	0.16	0.18	0.32	0.045	0.47	0.14
XXXXXXXNX [3064.0152]	0.099	0.42	0.14	0.21	0.12	0.086	0.40	0.54	0.066	0.33	0.18	0.25	0.27	0.076	0.49	0.13
XXXXXXXPX [3064.0153]	1.0	0.87	0.64	0.15	0.35	0.73	0.75	0.80	0.44	0.51	0.33	0.18	0.16	0.72	0.73	0.30
XXXXXXXQX [3064.0154]	0.16	0.35	0.10	0.16	0.17	0.15	0.54	0.27	0.19	0.32	0.14	0.39	0.30	0.11	0.68	0.19
